{"source": "patent US6720142B1", "about": "“Method of determining evolutionary potential of mutant resistance genes and use thereof to screen for drug efficacy” (priority 1999, dated 2004)"}
{"system": "E. coli carrying pAmpC41A (mutant ampC)", "assay": "MIC test, mutant plasmid pAmpC41A", "assay_type": "cell-based", "settings": "after subsequent rounds of mutagenesis and selection, relative to pAmpC13A", "procedure": "(§1) Serial dilutions were prepared by first determining the volume of drug solution to be added to the first well in each row to achieve the desired concentration of drug in a total volume of 1 ml. The MIC was determined for the following drugs: ampicillin, pipericillin, temocillin, cephalothin, cefuroxime, cefotaxime, ceftazidime, cefepime, imipenem, meropenem, and aztreonam. To the first well in each row 1 ml of the diluted cell suspension was added, and to all remaining wells per row 0.5 ml of the diluted cell suspension was added. For each row, the predetermined volume of a drug solution was added to the first well per row, mixed well, and then 0.5 ml of the mixed solution was transferred to the next well, and so on until the serial dilutions were completed. From the last well in each row, 0.5 ml was removed so that all well contained 0.5 ml of the drug-containing culture. Plates were sealed with BreatheEasy film (Diversified Biotech, Boston, Mass.) and maintained overnight at 37° C. with shaking. […]\n(§2) Plasmids were prepared from those isolates and were transformed into E. coli strain JM109. MICs conferred by each of those plasmids was determined as in Example 5. […]"}
{"smiles": "CCN1CCN(C(=O)N[C@@H](C(=O)N[C@@H]2C(=O)N3[C@@H]2SC(C)(C)[C@@H]3C(=O)O)c2ccccc2)C(=O)C1=O", "note": "[Pipericillin, pipericillin]", "improvement in resistance conferred by pAmpC41A": "slight improvement in resistance"}
{"system": "E. coli carrying pAmpC41A (mutant ampC)", "assay": "MIC test, mutant plasmid pAmpC41A", "assay_type": "cell-based", "settings": "pAmpC41A, first line", "procedure": "as §1, §2", "units": {"improvement in resistance": "fold"}}
{"smiles": "CO/N=C(\\C(=O)N[C@@H]1C(=O)N2C(C(=O)[O-])=C(C[N+]3(C)CCCC3)CS[C@H]12)c1csc(N)n1", "note": "[Cefepime, cefepime]", "improvement in resistance": 128}
{"system": "host cells carrying PAmpC0-307 (AmpC L290 to R)", "assay": "MIC test, single-mutation plasmid PAmpC0-307", "assay_type": "cell-based, E. coli", "settings": "PAmpC0-307; T869 to G; L290 to R", "procedure": "(§3) Basically, a MIC determination is carried out by preparing serial dilutions of drugs in a micro-well plate and measuring host cell growth within those wells. The MIC for a particular set of host cells containing a mutant resistance gene is determined by examining the wells to locate the lowest concentration of drug which inhibited cell growth. This is capable of discriminating generally between those host cells containing mutant resistance genes conferring different degrees of resistance against the particular drug.\n(§4) Serial dilutions were prepared by first determining the volume of drug solution to be added to the first well in each row to achieve the desired concentration of drug in a total volume of 1 ml. The MIC was determined for the following drugs: ampicillin, pipericillin, temocillin, cephalothin, cefuroxime, cefotaxime, ceftazidime, cefepime, imipenem, meropenem, and aztreonam. To the first well in each row 1 ml of the diluted cell suspension was added, and to all remaining wells per row 0.5 ml of the diluted cell suspension was added. For each row, the predetermined volume of a drug solution was added to the first well per row, mixed well, and then 0.5 ml of the mixed solution was transferred to the next well, and so on until the serial dilutions were completed. From the last well in each row, 0.5 ml was removed so that all well contained 0.5 ml of the drug-containing culture. Plates were sealed with BreatheEasy film (Diversified Biotech, Boston, Mass.) and maintained overnight at 37° C. with shaking. […] The MICs, in μg/ml, for each of the above-identified drugs was as follows: ampicillin, >1024; pipericillin, >1024; temocillin, 32: cephalothin, 1024; cefuroxime, 512; cefotaxime, 8; ceftazidime, 64; cefepime, 1; imipenem, 0.25; meropenem, 0.03125; and aztreonam, 16.\n(§5) To determine the phenotypic effects of each of the amino acid substitutions, the A907C, A587G, A663G, T869G, and A884G mutations are being individually introduced into pAmpC0 by site-directed mutagenesis. It is expected that the A907C mutation will result in MICs that are identical to pAmpC13A. The A587G, A663G, and As84G mutations will also be introduced individually into AmpC13 to determine whether the combination of any of those mutations with A907C will result in increased resistance levels.\n(§6) MICs of three of the plasmids containing the wildtype AmpC gene into which the above mutations have been introduced have been determined, as shown in Table 2 below.", "units": {"MIC": "µg/mL"}}
{"smiles": "CCN1CCN(C(=O)N[C@@H](C(=O)N[C@@H]2C(=O)N3[C@@H]2SC(C)(C)[C@@H]3C(=O)O)c2ccccc2)C(=O)C1=O", "note": "[Pipericillin, pipericillin]", "MIC": 16}
{"smiles": "CO/N=C(\\C(=O)N[C@@H]1C(=O)N2C(C(=O)[O-])=C(C[N+]3(C)CCCC3)CS[C@H]12)c1csc(N)n1", "note": "[Cefepime, cefepime]", "MIC": 0.0625}
{"system": "E. coli DH5α-E containing multiply mutated ampC", "assay": "MIC of population of E. coli host cells containing multiply mutated (DNA-shuffled) ampC", "assay_type": "cell-based", "settings": "Escherichia coli; lowest drug concentration that completely inhibited growth; overnight at 37° C., MH-I broth, 48-well plates, shuffled ampC library in DH5α-E", "procedure": "E. coli host cells prepared according to Example 4 were diluted into 100 ml MuellerHinton-IPTG (MH-T) broth. Duplicate samples of 10^0, 10^1, and 10^2 dilutions were spread onto L(tet) plates to estimate total transformants, and duplicate 10^0 and 10^1 samples were spread onto MH-I(ampicillin) plates to estimate the number of Amp^R transformants. 10 mg ampicillin was added to each culture using 1 ml of a 10 mg/ml ampicillin solution. The culture was allowed to stand overnight at 37° C. without shaking.\nNext, the minimum inhibitory concentration of a number of drug was determined. An estimate of viable cells was calculated by assuming that an A600 of 1.0 is equivalent to 1.9×10^8 per ml for DH5α-E cells. A sample of the overnight culture was diluted into 70 ml of MH-I so that the number of cells per ml 10^5 per ml. The resulting suspension was used to determine MIC in 48-well microtiter plates.\nas §4", "units": {"MIC": "µg/mL"}}
{"smiles": "CO/N=C(\\C(=O)N[C@@H]1C(=O)N2C(C(=O)[O-])=C(C[N+]3(C)CCCC3)CS[C@H]12)c1csc(N)n1", "note": "[Cefepime, cefepime]", "MIC": 1}
{"system": "host cells carrying pAmpC0-305 (AmpC T121 to S)", "assay": "MIC test, single-mutation plasmid pAmpC0-305", "assay_type": "cell-based, E. coli", "settings": "pAmpC0-305; A663 to G; T121 to S", "procedure": "as §3, §4, §5, §6", "units": {"MIC": "µg/mL"}}
{"smiles": "CCN1CCN(C(=O)N[C@@H](C(=O)N[C@@H]2C(=O)N3[C@@H]2SC(C)(C)[C@@H]3C(=O)O)c2ccccc2)C(=O)C1=O", "note": "[Pipericillin, pipericillin]", "MIC": 16}
{"smiles": "CO/N=C(\\C(=O)N[C@@H]1C(=O)N2C(C(=O)[O-])=C(C[N+]3(C)CCCC3)CS[C@H]12)c1csc(N)n1", "note": "[Cefepime, cefepime]", "MIC": 0.0625}
{"system": "E. coli JM109 carrying pAmpC0 (wildtype E. coli K12 ampC gene)", "assay": "MIC test, plasmid pAmpC0 (wildtype ampC gene)", "assay_type": "cell-based", "settings": "pAmpC0 (wildtype ampC)", "procedure": "as §3\n(§7) All experiments utilizing ampicillin resistance will be directed toward the cloned and regulated ampC gene (or mutant ampC gene) in such a way that the regulation, i.e., the amount of enzyme produced per cell, will be held constant throughout the experiments and all of the “improvement” in resistance will come from improvement in β-lactamase activity.\nas §4, with “16. […]” for “16.”", "units": {"MIC": "µg/mL"}}
{"smiles": "CCN1CCN(C(=O)N[C@@H](C(=O)N[C@@H]2C(=O)N3[C@@H]2SC(C)(C)[C@@H]3C(=O)O)c2ccccc2)C(=O)C1=O", "note": "[Pipericillin, pipericillin]", "MIC": 16}
{"smiles": "CO/N=C(\\C(=O)N[C@@H]1C(=O)N2C(C(=O)[O-])=C(C[N+]3(C)CCCC3)CS[C@H]12)c1csc(N)n1", "note": "[Cefepime, cefepime]", "MIC": 0.0625}
{"system": "E. coli JM109 carrying pAmpC0 (wildtype E. coli K12 ampC gene)", "assay": "MIC test, plasmid pAmpC0 (wildtype ampC gene)", "assay_type": "cell-based", "settings": "wildtype ampC gene; Table 1 boxed cells", "procedure": "as §3, §7\nas §4, with “16. […]” for “16.”"}
{"smiles": "CCN1CCN(C(=O)N[C@@H](C(=O)N[C@@H]2C(=O)N3[C@@H]2SC(C)(C)[C@@H]3C(=O)O)c2ccccc2)C(=O)C1=O", "note": "[Pipericillin, pipericillin]", "resistance conferred by plasmid pAmpC0": "not"}
{"smiles": "CO/N=C(\\C(=O)N[C@@H]1C(=O)N2C(C(=O)[O-])=C(C[N+]3(C)CCCC3)CS[C@H]12)c1csc(N)n1", "note": "[Cefepime, cefepime]", "resistance conferred by plasmid pAmpC0": "not"}
{"system": "E. coli carrying pAmpC21B (mutant ampC)", "assay": "MIC test, mutant plasmid pAmpC21B", "assay_type": "cell-based", "settings": "after two cycles of mutagenesis and selection", "procedure": "(§8) Serial dilutions were prepared by first determining the volume of drug solution to be added to the first well in each row to achieve the desired concentration of drug in a total volume of 1 ml. The MIC was determined for the following drugs: ampicillin, pipericillin, temocillin, cephalothin, cefuroxime, cefotaxime, ceftazidime, cefepime, imipenem, meropenem, and aztreonam. To the first well in each row 1 ml of the diluted cell suspension was added, and to all remaining wells per row 0.5 ml of the diluted cell suspension was added. For each row, the predetermined volume of a drug solution was added to the first well per row, mixed well, and then 0.5 ml of the mixed solution was transferred to the next well, and so on until the serial dilutions were completed. From the last well in each row, 0.5 ml was removed so that all well contained 0.5 ml of the drug-containing culture. Plates were sealed with BreatheEasy film (Diversified Biotech, Boston, Mass.) and maintained overnight at 37° C. with shaking.\n(§9) Plasmids were prepared from those isolates and were transformed into E. coli strain JM109."}
{"smiles": "CCN1CCN(C(=O)N[C@@H](C(=O)N[C@@H]2C(=O)N3[C@@H]2SC(C)(C)[C@@H]3C(=O)O)c2ccccc2)C(=O)C1=O", "note": "[Pipericillin, pipericillin]", "clinical resistance conferred by pAmpC21B": "clinical resistance"}
{"system": "E. coli carrying pAmpC21B (mutant ampC)", "assay": "MIC test, mutant plasmid pAmpC21B", "assay_type": "cell-based", "settings": "pAmpC21B, second line", "procedure": "as §8, §9", "units": {"increase in resistance": "fold"}}
{"smiles": "CO/N=C(\\C(=O)N[C@@H]1C(=O)N2C(C(=O)[O-])=C(C[N+]3(C)CCCC3)CS[C@H]12)c1csc(N)n1", "note": "[Cefepime, cefepime]", "increase in resistance": 2}
{"system": "host cells carrying PAmpC0-308 (AmpC N295 to S)", "assay": "MIC test, single-mutation plasmid PAmpC0-308", "assay_type": "cell-based, E. coli", "settings": "A644 to G", "units": {"MIC": "µg/mL"}}
{"smiles": "CCN1CCN(C(=O)N[C@@H](C(=O)N[C@@H]2C(=O)N3[C@@H]2SC(C)(C)[C@@H]3C(=O)O)c2ccccc2)C(=O)C1=O", "note": "[Pipericillin, pipericillin]", "MIC": 4}
{"smiles": "CO/N=C(\\C(=O)N[C@@H]1C(=O)N2C(C(=O)[O-])=C(C[N+]3(C)CCCC3)CS[C@H]12)c1csc(N)n1", "note": "[Cefepime, cefepime]", "MIC": 0.0625}
{"system": "E. coli JM109 carrying the plasmid vector pACSE without an ampC gene", "assay": "MIC test, plasmid vector pACSE without an ampC gene", "assay_type": "cell-based", "settings": "pACSE (vector, no ampC)", "procedure": "as §3, §4\nPlasmids were prepared from those isolates and were transformed into E. coli strain JM109. MICs conferred by each of those plasmids was determined as in Example 5.\nas §6", "units": {"MIC": "µg/mL"}}
{"smiles": "CCN1CCN(C(=O)N[C@@H](C(=O)N[C@@H]2C(=O)N3[C@@H]2SC(C)(C)[C@@H]3C(=O)O)c2ccccc2)C(=O)C1=O", "note": "[Pipericillin, pipericillin]", "MIC": 4}
{"smiles": "CO/N=C(\\C(=O)N[C@@H]1C(=O)N2C(C(=O)[O-])=C(C[N+]3(C)CCCC3)CS[C@H]12)c1csc(N)n1", "note": "[Cefepime, cefepime]", "MIC": 0.0312}
{"system": "E. coli carrying pAmpC13A (mutant ampC, S303R)", "assay": "MIC test, mutant plasmid pAmpC13A", "assay_type": "cell-based", "settings": "not given", "procedure": "as §8, §9"}
{"smiles": "CCN1CCN(C(=O)N[C@@H](C(=O)N[C@@H]2C(=O)N3[C@@H]2SC(C)(C)[C@@H]3C(=O)O)c2ccccc2)C(=O)C1=O", "note": "[Pipericillin, pipericillin]", "clinical resistance conferred by pAmpC13A": "clinical resistance", "improved resistance conferred by pAmpC13A": "improved resistance"}
{"smiles": "CO/N=C(\\C(=O)N[C@@H]1C(=O)N2C(C(=O)[O-])=C(C[N+]3(C)CCCC3)CS[C@H]12)c1csc(N)n1", "note": "[Cefepime, cefepime]", "improved resistance conferred by pAmpC13A": "improved resistance"}
